Data taken from ChEMBL document CHEMBL1121374, “Analgesic narcotic antagonists. 4. 7-Methyl-N-(cycloalkylmethyl)-3-hydroxymorphinan-6-ones and -isomorphinan-6-ones” (1980).
Calls of active or inactive are those of the source. The rule behind the calls is not given here.

What was measured:
Rattus norvegicus [1] = test: Antagonist activity in rat tail flick assay by intraperitoneal administration; format: functional
Mus musculus [2] = test: Compound was tested for analgesia in mouse writhing assay by subcutaneous administration; format: functional
Rattus norvegicus [3] = species: Rattus norvegicus; test: Ratio of agonist potency to antagonist potency was determined; format: functional
Mus musculus [4] = test: Compound was tested for analgesia in mouse writhing assay by subcutaneous administration short duration at 5 min; format: functional; details: sc
Rattus norvegicus [5] = test: Antagonist activity in rat tail flick assay by subcutaneous administration; format: functional
Rattus norvegicus [6] = test: Compound was tested for antagonist in rat tail flick assay by subcutaneous administration at dose 33 umol/kg; IA means inactive; format: functional, organism-based
Rattus norvegicus [7] = test: Compound was tested for antagonist in rat tail flick assay by intraperitoneal administration at dose 25 umol/kg; IA means inactive; format: functional, organism-based
Rattus norvegicus [8] = test: Compound was tested for antagonist in rat tail flick assay by subcutaneous administration at dose 29 umol/kg; IA means inactive; format: functional, organism-based
Rattus norvegicus [9] = test: Compound was tested for antagonist in rat tail flick assay by subcutaneous administration at dose 27 umol/kg; IA means inactive; format: functional, organism-based
Mus musculus [10] = test: Compound was tested for analgesia in mouse writhing assay by subcutaneous administration; IA means inactive; format: functional, organism-based
[11] = Rattus norvegicus, Tail, ip, read-out: ED50
[12] = Mus musculus, sc, read-out: ED50
[13] = Rattus norvegicus, Tail, sc, read-out: ED50

SMILES	ED50 (Rattus norvegicus [1]; [11]) [µmol/kg]	ED50 (Mus musculus [2]; [12]) [µmol/kg]	ED50 (Mus musculus [2]) [µM/kg]	also measured
CC[C@@H]1[C@@H](C)C(=O)CC23CCN(CC4CC4)C(Cc4ccc(OC)cc42)[C@@H]13 (some centres not stated)	> 25	> 25	–	–
COc1ccc2c(c1)C13CCN(CC4CCC4)C(C2)[C@@H]1[C@@H](C)[C@H](C)C(=O)C3 (some centres not stated)	> 25	15.8	–	–
COc1ccc2c(c1)C13CCN(CC4CCC4)C(C2)[C@H]1[C@H](C)[C@@H](C)C(=O)C3 (some centres not stated)	> 25	> 25	–	–
C[C@@H]1C[C@@H]2C3Cc4ccc(O)cc4C2(CCN3CC2CC2)CC1=O (stereo in doubt; 12T a)	–	–	–	Ratio (Rattus norvegicus [3]): 1.5; ED50 (Rattus norvegicus [1]): 1.18 µM/kg; ED50 (Mus musculus [4]): 1.77 µmol/kg
CC(C)=CCN1CC[C@]2(C)c3cc(O)ccc3C[C@H]1[C@H]2C [(+)-PENTAZOCINE]	36.4	12.9	–	Ratio (Rattus norvegicus [3]): 0.36
CC[C@@H]1[C@@H](C)C(=O)CC23CCN(CC4CC4)C(Cc4ccc(O)cc42)[C@@H]13 (some centres not stated)	> 25	> 25	–	–
C[C@@H]1[C@@H](C)C(=O)CC23CCN(CC4CC4)C(Cc4ccc(O)cc42)[C@@H]13 (some centres not stated)	1.02	4.5	–	Ratio (Rattus norvegicus [3]): 4.4
COc1ccc2c(c1)C13CCN(CC4CC4)C(C2)[C@@H]1[C@@H](C)[C@H](C)C(=O)C3.Cl (some centres not stated)	12.1	2.64	–	Ratio (Rattus norvegicus [3]): 0.22
C[C@H]1C[C@H]2C3Cc4ccc(O)cc4C2(CCN3C)CC1=O (stereo in doubt; 7C)	–	–	0.52	ED50 (Rattus norvegicus [5]): 70 µM/kg
Oc1ccc2c(c1)[C@@]13CCCC[C@@]1(O)[C@@H](C2)N(CC1CCC1)CC3 [BUTORPHANOL]	2	0.34	–	Ratio (Rattus norvegicus [3]): 0.17
C[C@H]1[C@H](C)C(=O)CC23CCN(CC4CC4)C(Cc4ccc(O)cc42)[C@H]13 (some centres not stated)	0.35	23	–	Ratio (Rattus norvegicus [3]): 65
COc1ccc2c3c1O[C@H]1[C@@H](O)C=C[C@H]4[C@@H](C2)N(C)CC[C@@]341 [CODEINE]	–	10.2	–	ED50 (Rattus norvegicus [5]; [13]): 75 µmol/kg
CC[C@H]1[C@H](C)C(=O)CC23CCN(CC4CCC4)C(Cc4ccc(O)cc42)[C@H]13 (some centres not stated)	4.84	8.19	–	Ratio (Rattus norvegicus [3]): 1.7
CC[C@H]1[C@H](C)C(=O)CC23CCN(C)C(Cc4ccc(O)cc42)[C@H]13 (some centres not stated)	–	0.14	–	ED50 (Rattus norvegicus [5]; [13]): 1.5 µmol/kg
COc1ccc2c(c1)C13CCN(CC4CCC4)C(C2)[C@H]1C[C@@H](C)C(=O)C3 (some centres not stated)	–	–	20.3	–
C[C@H]1C[C@H]2C3Cc4ccc(O)cc4C2(CCN3CC2CCC2)CC1=O (stereo in doubt; 13C a)	> 30	–	0.35	–
CN1CC[C@]23c4c5ccc(O)c4O[C@H]2C(=O)CC[C@H]3[C@H]1C5 [HYDROMORPHONE]	–	–	–	ED50 (Rattus norvegicus [5]; [13]): 1.34 µmol/kg
COc1ccc2c(c1)C13CCN(C)C(C2)[C@H]1C[C@@H](C)C(=O)C3 (stereo in doubt; 6T)	–	–	5.54	ED50 (Rattus norvegicus [5]; [13]): > 70 µmol/kg
C[C@@H]1C[C@@H]2C3Cc4ccc(O)cc4C2(CCN3CC2CC2)CC1=O (stereo in doubt; 12T)	2.24	8.9	–	Ratio (Rattus norvegicus [3]): 4
CC[C@@H]1[C@@H](C)C(=O)CC23CCN(C)C(Cc4ccc(O)cc42)[C@@H]13 (some centres not stated)	–	7.53	–	ED50 (Rattus norvegicus [5]; [13]): 7.45 µmol/kg

SMILES	ED50 (Rattus norvegicus [1]; [11]) [µmol/kg]	ED50 (Mus musculus [2]; [12]) [µmol/kg]	ED50 (Mus musculus [2]) [µM/kg]	also measured
C[C@H]1C[C@H]2C3Cc4ccc(O)cc4C2(CCN3CC2CCC2)CC1=O (stereo in doubt; 13C) [listing 1 of 2 here]	–	–	0.047	–
COc1ccc2c(c1)C13CCN(CC4CC4)C(C2)[C@H]1[C@H](C)[C@@H](C)C(=O)C3 (some centres not stated)	> 26	> 26	–	–
C[C@H]1[C@H](C)C(=O)CC23CCN(C)C(Cc4ccc(O)cc42)[C@H]13 (some centres not stated)	–	0.4	–	ED50 (Rattus norvegicus [5]; [13]): 12.4 µmol/kg
C=CCN1CC[C@]23c4c5ccc(O)c4O[C@H]2[C@@H](O)C=C[C@H]3[C@H]1C5 [NALORPHINE]	2.47	3.51	–	Ratio (Rattus norvegicus [3]): 1.42
C[C@H]1[C@H]2Cc3ccc(O)cc3[C@]1(C)CCN2CC1CC1 [CYCLAZOCINE]	0.81	0.41	–	Ratio (Rattus norvegicus [3]): 0.5
C[C@@H]1C[C@@H]2C3Cc4ccc(O)cc4C2(CCN3CC2CCC2)CC1=O (stereo in doubt; 13T a)	–	–	0.93	ED50 (Rattus norvegicus [1]): >24 µM/kg
CC[C@H]1[C@H](C)C(=O)CC23CCN(CC4CC4)C(Cc4ccc(O)cc42)[C@H]13 (some centres not stated)	2.23	> 25	–	–
CC[C@H]1[C@H](C)C(=O)CC23CCN(CC4CCC4)C(Cc4ccc(OC)cc42)[C@H]13 (some centres not stated)	> 24	18.7	–	–
C[C@@H]1[C@@H](C)C(=O)CC23CCN(CC4CCC4)C(Cc4ccc(O)cc42)[C@@H]13 (some centres not stated)	> 25	0.79	–	–
COc1ccc2c(c1)C13CCN(CC4CCC4)C(C2)[C@H]1C[C@@H](C)C(=O)C3.Cl (some centres not stated)	> 38	–	7.31	–
COc1ccc2c(c1)C13CCN(C)C(C2)[C@@H]1C[C@H](C)C(=O)C3 (stereo in doubt; 6C a)	–	–	0.5	ED50 (Rattus norvegicus [5]): 1.6 µM/kg
C[C@@H]1C[C@@H]2C3Cc4ccc(O)cc4C2(CCN3C)CC1=O (stereo in doubt; 7T a)	–	–	0.91	ED50 (Rattus norvegicus [5]): 1.09 µM/kg
COc1ccc2c3c1O[C@H]1C(=O)CC[C@H]4[C@@H](C2)N(C)CC[C@]314 [HYDROCODONE]	–	2.36	–	ED50 (Rattus norvegicus [5]; [13]): 5.2 µmol/kg
COc1ccc2c(c1)C13CCN(CC4CC4)C(C2)[C@H]1C[C@@H](C)C(=O)C3.Cl (some centres not stated)	–	–	>40	ED50 (Rattus norvegicus [1]): 3.19 µM/kg
C[C@@H]1C[C@@H]2C3Cc4ccc(O)cc4C2(CCN3C)CC1=O (stereo in doubt; 7T)	–	0.75	–	ED50 (Rattus norvegicus [5]; [13]): 1.33 µmol/kg
COc1ccc2c(c1)C13CCN(C)C(C2)[C@H]1C[C@@H](C)C(=O)C3 (stereo in doubt; 6T a) [listing 1 of 2 here]	–	–	–	ED50 (Rattus norvegicus [6]): inactive
C[C@H]1C[C@H]2C3Cc4ccc(O)cc4C2(CCN3CC2CC2)CC1=O (stereo in doubt; 12C)	7.4	3.28	–	Ratio (Rattus norvegicus [3]): 0.44
COc1ccc2c(c1)C13CCN(CC4CC4)C(C2)[C@@H]1C[C@H](C)C(=O)C3 (some centres not stated)	–	–	0.66	Ratio (Rattus norvegicus [3]): 0.04; ED50 (Rattus norvegicus [1]): 14.9 µM/kg
CC[C@H]1[C@H](C)C(=O)CC23CCN(CC4CC4)C(Cc4ccc(OC)cc42)[C@H]13.Cl (some centres not stated)	15.7	8.04	–	Ratio (Rattus norvegicus [3]): 0.51
COc1ccc2c(c1)C13CCN(CC4CC4)C(C2)[C@H]1C[C@@H](C)C(=O)C3 (some centres not stated)	3.6	> 25	–	–

SMILES	ED50 (Rattus norvegicus [1]; [11]) [µmol/kg]	ED50 (Mus musculus [2]; [12]) [µmol/kg]	ED50 (Mus musculus [2]) [µM/kg]	also measured
C[C@H]1C[C@H]2C3Cc4ccc(O)cc4C2(CCN3CC2CCC2)CC1=O (stereo in doubt; 13C) [listing 2 of 2 here]	–	–	–	ED50 (Rattus norvegicus [7]): inactive
COc1ccc2c(c1)C13CCN(CC4CCC4)C(C2)[C@@H]1C[C@H](C)C(=O)C3 (some centres not stated) [listing 1 of 2 here]	–	–	–	ED50 (Rattus norvegicus [7]): inactive
CC[C@H]1[C@H](C)C(=O)CC23CCN(C)C(Cc4ccc(OC)cc42)[C@H]13 (some centres not stated)	–	0.49	–	ED50 (Rattus norvegicus [5]; [13]): 2.75 µmol/kg
C[C@@H]1C[C@@H]2C3Cc4ccc(O)cc4C2(CCN3CC2CCC2)CC1=O (stereo in doubt; 13T)	13.8	–	2.6	Ratio (Rattus norvegicus [3]): 0.2
C[C@H]1[C@H](C)C(=O)CC23CCN(CC4CCC4)C(Cc4ccc(O)cc42)[C@H]13 (some centres not stated)	5.66	2.21	–	Ratio (Rattus norvegicus [3]): 0.4
C[C@@H]1[C@@H](C)C(=O)CC23CCN(C)C(Cc4ccc(O)cc42)[C@@H]13 (some centres not stated)	–	0.58	–	ED50 (Rattus norvegicus [5]; [13]): 0.68 µmol/kg
COc1ccc2c(c1)C13CCN(CC4CCC4)C(C2)[C@@H]1C[C@H](C)C(=O)C3 (some centres not stated) [listing 2 of 2 here]	–	–	0.58	–
C[C@H]1C[C@H]2C3Cc4ccc(O)cc4C2(CCN3CC2CC2)CC1=O (stereo in doubt; 12C a)	–	–	2.4	Ratio (Rattus norvegicus [3]): 0.17; ED50 (Rattus norvegicus [1]): 14.4 µM/kg
CC[C@@H]1[C@@H](C)C(=O)CC23CCN(CC4CCC4)C(Cc4ccc(O)cc42)[C@@H]13 (some centres not stated)	> 25	> 25	–	–
COc1ccc2c(c1)C13CCN(C)C(C2)[C@H]1[C@H](C)[C@@H](C)C(=O)C3 (some centres not stated)	–	3.72	–	ED50 (Rattus norvegicus [8]): inactive
CC[C@@H]1[C@@H](C)C(=O)CC23CCN(CC4CCC4)C(Cc4ccc(OC)cc42)[C@@H]13 (some centres not stated)	> 25	> 25	–	–
COc1ccc2c(c1)C13CCN(CC4CC4)C(C2)[C@@H]1C[C@H](C)C(=O)C3.Cl (some centres not stated)	–	–	1.6	Ratio (Rattus norvegicus [3]): 0.04; ED50 (Rattus norvegicus [1]): 42.6 µM/kg
C[C@H]1C[C@H]2C3Cc4ccc(O)cc4C2(CCN3C)CC1=O (stereo in doubt; 7C a)	–	0.39	–	ED50 (Rattus norvegicus [5]): 1.82 µM/kg
CN1CC[C@]23c4c5ccc(O)c4O[C@H]2[C@@H](O)C=C[C@H]3[C@H]1C5 [MORPHINE]	–	–	–	ED50 (Rattus norvegicus [5]; [13]): 19.3 µmol/kg
CC[C@@H]1[C@@H](C)C(=O)CC23CCN(C)C(Cc4ccc(OC)cc42)[C@@H]13 (some centres not stated)	–	7.42	–	ED50 (Rattus norvegicus [9]): inactive
COc1ccc2c(c1)C13CCN(C)C(C2)[C@H]1C[C@@H](C)C(=O)C3 (stereo in doubt; 6T a) [listing 2 of 2 here]	–	–	15.7	–
COc1ccc2c(c1)C13CCN(C)C(C2)[C@@H]1[C@@H](C)[C@H](C)C(=O)C3 (some centres not stated)	–	2.16	–	ED50 (Rattus norvegicus [5]; [13]): 17.9 µmol/kg
COc1ccc2c(c1)C13CCN(CC4CCC4)C(C2)[C@@H]1C[C@H](C)C(=O)C3.Cl (some centres not stated)	> 25	–	3.58	–
COc1ccc2c(c1)C13CCN(C)C(C2)[C@@H]1C[C@H](C)C(=O)C3 (stereo in doubt; 6C)	–	–	1.72	ED50 (Rattus norvegicus [5]; [13]): 2.32 µmol/kg
C=CCN1CC[C@]23c4c5ccc(O)c4O[C@H]2C(=O)CC[C@@]3(O)[C@H]1C5 [NALOXONE]	–	–	–	ED50 (Mus musculus [10]): inactive
